Reference: US20230310660A1, “SHELF-STABLE INDOCYANINE GREEN SOLUTIONS AND METHODS OF MAKING THE SAME” (CAO Group, Inc., priority 2020, published 2023)

Experiments:
[1] = after mixing with water; cited from earlier work
[2] = Shelf stability of indocyanine green dissolved in water-free organic solvent; format: physicochemical; conditions: absence of water, room temperature
Text: Through experimentation, it has been determined that the biggest cause of instability within ICG solutions to be nothing other than water and the second most recognizable factor is temperature. Therefore, with the instability factors identified the present invention identifies by way of experimentation with other solutions within which ICG is stable. An embodiment of the present invention utilizes organic liquids to create shelf stable ICG solutions. The present invention is a method of creating a shelf-stable, liquid, indocyanine green solution.
More importantly, the type of organic solvent selected is not the important factor for stability—only the absence of water is required.
When creating the solution, the manufacturing method is to add the ICG to the solvent(s) and stir until it dissolves. Thereafter the solution is loading in an airtight sealed container, thereby preventing the introduction of ambient air, which may contain water vapor, into the container.

CC1(C)C(/C=C/C=C/C=C/C=C2\N(CCCCS(=O)(=O)O)c3ccc4ccccc4c3C2(C)C)=[N+](CCCCS(=O)(=O)[O-])c2ccc3ccccc3c21 [indocyanine green]
shelf life of ICG solutions (unstable) [1]: a few days | shelf stable (shelf life of solution) [2]: up to 1 year | shelf stable (shelf life of solution) ([2]; listed as ICG): up to one
